Experimental data taken from the supplement of paper PMC13380429.

Legend:
Settings in all cases: 72 h
Caco-2 [1] = assay: relative viability EC50 (midpoint between 100% and the lowest measured viability); higher = less toxic
Vero E6 [2] = assay: as above
U2OS [3] = assay: as above
HepG2 [4] = assay: as above
Caco-2 [5] = assay: cell viability relative to DMSO; higher = less toxic
Vero E6 [6] = assay: as above
U2OS [7] = assay: as above
HepG2 [8] = assay: as above
Calu-3 [9] = assay: as above
Caco-2 [10] = assay: drug sensitivity score (DSS) for viability; higher = more toxic; extreme values may be limits of the assay
Vero E6 [11] = assay: as above
U2OS [12] = assay: as above
HepG2 [13] = assay: as above
Calu-3 [14] = assay: as above
Calu-3 [15] = assay: relative viability EC50 (midpoint between 100% and the lowest measured viability); higher = less toxic

| Structure (SMILES) | relative viability EC50 (Caco-2 [1]) | relative viability EC50 (Vero E6 [2]) | relative viability EC50 (U2OS [3]) | relative viability EC50 (HepG2 [4]) | cell viability (Caco-2 [5]; 1 nM) | cell viability (Caco-2 [5]; 10 nM) | cell viability (Caco-2 [5]; 100 nM) | cell viability (Caco-2 [5]; 1000 nM) | cell viability (Caco-2 [5]; 10000 nM) | cell viability (Vero E6 [6]; 1 nM) | cell viability (Vero E6 [6]; 10 nM) | cell viability (Vero E6 [6]; 100 nM) | cell viability (Vero E6 [6]; 1000 nM) | cell viability (Vero E6 [6]; 10000 nM) | cell viability (U2OS [7]; 1 nM) | cell viability (U2OS [7]; 10 nM) | cell viability (U2OS [7]; 100 nM) | cell viability (U2OS [7]; 1000 nM) | cell viability (U2OS [7]; 10000 nM) | cell viability (HepG2 [8]; 1 nM) | cell viability (HepG2 [8]; 10 nM) | cell viability (HepG2 [8]; 100 nM) | cell viability (HepG2 [8]; 1000 nM) | cell viability (HepG2 [8]; 10000 nM) | cell viability (Calu-3 [9]; 1 nM) | cell viability (Calu-3 [9]; 10 nM) | cell viability (Calu-3 [9]; 100 nM) | cell viability (Calu-3 [9]; 1000 nM) | cell viability (Calu-3 [9]; 10000 nM) | drug sensitivity score (Caco-2 [10]) | drug sensitivity score (Vero E6 [11]) | drug sensitivity score (U2OS [12]) | drug sensitivity score (HepG2 [13]) | drug sensitivity score (Calu-3 [14]) | relative viability EC50 (Calu-3 [15]) |
| --- | --- | --- | --- | --- | --- | --- | --- | --- | --- | --- | --- | --- | --- | --- | --- | --- | --- | --- | --- | --- | --- | --- | --- | --- | --- | --- | --- | --- | --- | --- | --- | --- | --- | --- | --- |
| CC[C@H](CC#N)OC(=O)N[C@@H](C)c1cccc(NC(=O)Nc2ccc(-c3cnco3)c(OC)c2)c1 [AVN-944] | 0.319 µM | 1.06 µM | 0.707 µM | 0.464 µM | 102% | 94.1% | 93.6% | 54.8% | 48% | 97.8% | 108% | 103% | 67.6% | 30.2% | 105% | 101% | 102% | 45.2% | 22.2% | 89% | 106% | 101% | 37.6% | 29% | 97.6% | 92.9% | 88.7% | 57.3% | 58.2% | 9.1 | 8 | 10.7 | 11.5 | 9.1 |  |
| CCCCCCCCCCCC(=O)N(CCO)CCO [lauric-diethanolamide] | > 10 µM | > 10 µM | > 10 µM | > 10 µM | 107% | 90.1% | 98.7% | 92.7% | 101% | 104% | 101% | 103% | 102% | 97.3% | 99.4% | 95.9% | 101% | 98.5% | 102% | 94% | 99.1% | 93.5% | 96.8% | 90.1% |  |  |  |  |  | 0 | 0 | 0 | 0 |  |  |
| CC1(C)CCC(C)(C)c2cc(C(=O)Nc3ccc(C(=O)O)cc3)ccc21 [AM-580] | > 10 µM | > 10 µM | > 10 µM | > 10 µM | 95.5% | 99.1% | 98.1% | 95.6% | 93.9% | 103% | 106% | 102% | 101% | 96.5% | 100% | 96.7% | 95.6% | 90.5% | 95.6% | 92.6% | 101% | 101% | 102% | 97.3% | 89.5% | 83.4% | 71.6% | 77.3% | 81.6% | 0 | 0 | 0 | 0 | 7.7 |  |
| CC[C@H](C)[C@H](NC(=O)[C@H](Cc1ccc(O)cc1)NC(=O)[C@@H](NC(=O)[C@H](CCCNC(=N)N)NC(=O)[C@@H](N)CC(=O)O)C(C)C)C(=O)N[C@@H](Cc1c[nH]cn1)C(=O)N1CCC[C@H]1C(=O)O [TXA127] | > 10 µM |  | > 10 µM | > 10 µM | 104% | 110% | 98.2% | 99.4% | 89.4% |  |  |  |  |  | 98.9% | 98.7% | 99.1% | 93.3% | 96.9% | 96.2% | 105% | 89.3% | 104% | 92.4% | 95.2% | 90.6% | 97.9% | 89.2% | 105% | 0 |  | 0 | 0 | 0 | > 10 µM |
| Cc1ccc(C(=O)c2ccc(CC(=O)O)n2C)cc1 [tolmetin] | > 10 µM |  | > 10 µM | > 10 µM | 90.4% | 94.6% | 94.6% | 90.7% | 105% |  |  |  |  |  | 96.8% | 102% | 92.4% | 97.8% | 102% | 109% | 109% | 100% | 108% | 93.7% | 88.7% | 97.8% | 92.4% | 90.9% | 96.6% | 0 |  | 0 | 0 | 0 | > 10 µM |
| CS(=O)(=O)Nc1ccc(-c2coc3cc(OCc4cccc(C(=O)O)c4)ccc3c2=O)cc1 | > 10 µM |  | > 10 µM | > 10 µM | 94.9% | 97.6% | 97.7% | 97.1% | 101% |  |  |  |  |  | 97.8% | 99.1% | 107% | 105% | 103% | 92.6% | 107% | 101% | 109% | 93.2% | 108% | 90.4% | 96.2% | 101% | 103% | 0 |  | 0 | 0 | 0 | > 10 µM |
| Cc1ccc(N(CC2=NCCN2)c2cccc(O)c2)cc1 [phentolamine] | > 10 µM |  | > 10 µM | > 10 µM | 99% | 98.8% | 109% | 97.4% | 91.1% |  |  |  |  |  | 99.3% | 100% | 94.7% | 101% | 97.3% | 96.8% | 96.5% | 106% | 106% | 104% | 99.8% | 103% | 105% | 93.5% | 106% | 0 |  | 0 | 0 | 0 | > 10 µM |
| O=C(Nc1nc2ccc(NC(=O)C34CC5CC(CC(C5)C3)C4)cc2s1)c1ccccc1 [NVP-231] | 1.58 µM | 2.34 µM | 1.93 µM | 1.24 µM | 95.6% | 89.2% | 106% | 86.3% | 43.5% | 101% | 96.1% | 90.3% | 93.9% | 38.4% | 100% | 93.8% | 99.3% | 91.9% | 49.6% | 83.9% | 98.2% | 91.6% | 74.1% | 35.4% | 100% | 96.1% | 91.8% | 93.1% | 50.3% | 5.2 | 4.4 | 4 | 6.4 | 3.8 |  |
